Marks after values point to notes of the source that are not given here.
Columns and labels:
[1] = Competition of scyllo-inositol uptake by myo-inositol after single oral gavage (FIG. 17); assay type: in vivo; conditions: co-administration of 0, 50, 200 or 400 μg of myo-inositol
Description: FIG. 17. A competition assay with myo-inositol to compete scyllo-inositol uptake, following a single oral gavage dose was examined. (A) Plasma 3^H-scyllo-inositol levels following co-administration of 0, 50, 200 or 400 μg of myo-inositol. Myo-inositol loading appears to alter the kinetics of oral scyllo-inositol uptake in a dose-dependent manner.

plaque burden [2] = assay: TgCRND8 mice therapeutic dosing (5-6 months): plaque burden; assay type: in vivo; conditions: TgCRND8 mice dosed 5-6 months age, 28 days, 10 mg/ml in drinking water
TgCRND8 mice [3] = assay: TgCRND8 mice therapeutic dosing (5-6 months): synaptic density; assay type: in vivo; conditions: therapeutic dosing regimen 5-6 months, p<0.001
Aβ40 = target: T1, Aβ40 (Homo sapiens, UniProt P05067); assay: TgCRND8 mice 2 month ad libitum treatment from 5 months: brain and plasma Aβ40 ELISA; assay type: in vivo; conditions: 2 month treatment ad libitum 10 mg/ml from 5 months of age
T1 construct: associated with reduced levels of insoluble Aβ40 and Aβ42 in the brain; from tissue; host or cells: brain homogenate (and plasma) of TgCRND8 transgenic mice
T1 sequence (P05067 672-711): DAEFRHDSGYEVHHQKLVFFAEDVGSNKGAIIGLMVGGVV

Aβ plaque burden = assay: TgCRND8 mice 2 month ad libitum treatment from 5 months: Aβ plaque burden; assay type: in vivo; conditions: 2 months ad libitum from 5 months
TgCRND8 mice [4] = system: TgCRND8 mice
TgCRND8 mice [5] = assay: TgCRND8 effective dose range (0.3-3.3 mg/kg/day, 3 to 4 months): Morris Water Maze; assay type: in vivo; conditions: for effect on cognitive dysfunction and plaque burden: oral gavage twice daily
Description: (§1) The highest possible dose level of scyllo-cyclohexanehexyl compound was administered in a CRND8 mouse model. […]8 mice were dosed for 28 days from 3 to 4 months of age, i.e. a time when the disease phenotype would be newly established. This study design was selected to enhance the efficiency of the study (dose earlier) and maximise the information obtained (dose at a time when changes are of sufficient magnitude to detect a treatment effect). […] Cognitive function and plaque burden were assessed. • Improvement of cognitive function: Animals were assessed using the Morris Water Maze at 4 months (FIG. 11). […] This path length was similar to that observed in previous experiments in mice dosed with the compound in drinking water ad libitum. […] Thus a clear dose response was observed.

[6] = system: naturally-expressed oligomers of Aβ; assay: In vitro effect on naturally-expressed Aβ oligomers; conditions: naturally-expressed oligomers at 1-2 nM; 5 μM = 0.9 μg/mL
naturally-expressed oligomers of Aβ, sequence (P05067 672-711 limits assumed): as the sequence (P05067 672-711) above

[7] = Brain and CSF levels of inositols after one month ad libitum dosing (GC/MS), Example 2; assay type: in vivo, TgCRND8 mice; conditions: mouse, in vivo
Description: Study drugs were administered either at 30 mg/kg by oral gavage, or ad libitum by dissolution in drinking water. For administration in drinking water, study drugs were dissolved at 10 mg/ml. The average amount of water taken from the bottle was 3 ml daily per animal. The average mouse weight was 33 g. […] Quantification of scyllo-cyclohexanehexyl and myo-inositol. Scyllo-cyclohexanehexyl and myo-cyclohexanehexyl levels in the brain and CSF were analyzed using gas chromatography/mass spectrometry. D-chiro-inositol was used as an internal control, as it is not present in these biological samples. Derivatization: To increase the volatility and thermal stability of these compounds and to allow for proper peak separation, these samples need to first be derivatized. The derivatization was adapted from a method presented previously (Shetty, H U, et al, 1995, Anal. Biochem. 224:279-85), where the hydroxyl groups of the cyclohexanehexyl were replaced with acetyl groups. […] Similarly, a 5-15 μl sample of CSF was mixed with 1 ml of methanol and allowed to stand at room temperature for 5 minutes. The resulting suspension was centrifuged (5 min, 5000×g) and the supernatant transferred to a glass tube (Teflon-lined cap). […] These samples were then evaporated to complete dryness (Speedvac; 60° C.). […] This mixture was flushed with dry nitrogen, securely capped and the tubes heated (80° C.; 30 min). Following derivatization, samples were cooled (RT) and the unreacted acetylating reagent evaporated using a steady stream of nitrogen gas. The derivatized products were re-dissolved (4 ml; hexane-ethyl acetate (80:20, v/v)) and washed with 1 ml of 5% sodium hydrogencarbonate solution. […] The residue was reconstituted in 100 μl; ethyl acetate. 1 μL of this was injected into the GC/MS system. A similar procedure was followed using stock concentrations of scyllo- and myo-cyclohexanehexols, which were then used to generate concentration curves (in this case the internal standard was derivatized separately and then added). GC/MS was performed using a Perkin Elmer TurboMass Autosystem XL, with a quadrupole mass spectrometer and electron ionization. Gas chromatography was performed using a 30 m×0.25 mm×0.25 μm ZB 5 (5% diphenyl/95% dimethylpolysiloxane) column, using the carrier gas Helium (1 ml/min). Samples were injected with the split set to 50 at 1 min and 0 at 5 min, the injector temperature was set at 300° C. and an initial oven temperature of 80° C. After a hold of 1 min, the temperature was ramped at 45° C./min to 187° C. and held there for 15 min. […] Sample peaks were analyzed using selected-ion monitoring, using m/z 168 for determining cyclohexanehexyl levels in the brain and CSF and m/z 373 for determining cyclohexanehexyl levels in plasma, as monitoring the larger ion reduced noise. […]

plaque burden [8] = assay: TgCRND8 effective dose range (0.3-3.3 mg/kg/day, 3 to 4 months): plaque burden; assay type: in vivo; conditions: TgCRND8 mice
Description: as §1

Aβ42 = target: T2, Aβ42 (Homo sapiens, UniProt P05067); assay: TgCRND8 dose response, dosed 5-6 months once daily: Aβ42 in brain homogenates by ELISA; assay type: in vivo; conditions: CRND8 mice 5-6 months, oral
T2 construct: from tissue; host or cells: brain homogenate (and plasma) of TgCRND8 transgenic mice
T2 sequence (P05067 672-713): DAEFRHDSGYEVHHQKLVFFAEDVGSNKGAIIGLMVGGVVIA
Description: Dose response was further examined in animals dosed from 5-6 months of age. Disease is more advanced at this later time point, so there may be greater clinical relevance. The dose levels investigated were 5, 10 and 30 mg/kg or vehicle, once daily. Accumulation of Aβ42 was assessed. • Reduction in amyloid accumulation in the brain: Levels of Aβ42 in brain homogenates were assessed by ELISA.

In the case of `OC1C(O)C(O)C(O)C(O)C1O` (stereo not shown) [AZD-103, scyllo-inositol], the “brain levels of scyllo-inositol at 4 h following myo-inositol administration” value [1] is reported as “not significantly changed”, the “Mean Plaque Size” value (plaque burden [2]) is reported as 336 ± 6* μm^2 and the “Total Plaque Area” value (plaque burden [2]) is reported as 420027 ± 14986* μm^2. The synaptic density (TgCRND8 mice [3]) was “increased synaptic density”, the “Plasma Aβ levels Aβ40” value (Aβ40) was 4507 ± 207 pg/mL and the “growth of plaques by size distribution” value (Aβ plaque burden) was “effective at inhibiting the growth of plaques of all sizes”. The “percent brain area covered in plaques” value (Aβ plaque burden; P=0.0001) was “significantly reduced”, the “twice-daily oral gavage vs one daily dose at equivalent doses, reversing cognitive deficits” value (TgCRND8 mice [4]; TgCRND8 mice, dose finding studies) was “more effective than one daily dose” and the “adverse effects in the mice” value (TgCRND8 mice [4]; mouse, in vivo) was “no evidence of adverse effects”.

For scyllo-inositol [AZD-103], the “swim path length vs untreated controls” value (TgCRND8 mice [5]; TgCRND8 mice, 0.3 mg/kg/day, 28 days from 3 to 4 months) was “indistinguishable from untreated controls”, the “effect on cognitive dysfunction and plaque burden” value (TgCRND8 mice [5]; TgCRND8 mice, 0.3 mg/kg/day, compared to untreated animals) was “no observed effect” and the “effect on cognitive dysfunction and plaque burden” value (TgCRND8 mice [5]; TgCRND8 mice, 1.0 mg/kg/day) was “partial effectiveness”. For the same compound, the “swim path length on day 5 of training vs untreated animals” value (TgCRND8 mice [5]; TgCRND8 mice, 3.3 mg/kg/day, 28 days from 3 to 4 months, p=0.04) was “significantly shorter swim path length”, the “effect on cognitive dysfunction and plaque burden” value (TgCRND8 mice [5]; TgCRND8 mice, 3.3 mg/kg/day) was “significant alleviation of cognitive dysfunction and reduction in plaque burden” and the “dose providing efficacy in terms of behaviour and Aβ accumulation” value (TgCRND8 mice [5]; young CRND8 mice dosed 12-16 weeks of age, oral) was 3.3 mg/kg/day. The “concentration showing greater consistency of effect” value [6] was 5 µM, the “increase of scyllo-cyclohexanehexyl level in CSF vs untreated” value [7] was 10 fold and the “increase of scyllo-cyclohexanehexyl level in brain vs untreated” value [7] was 7 fold. For the same compound, the “plaque parameters (plaque count and brain plaque area)” value (“plaque parameters” below) (plaque burden [8]; 0.3 mg/kg/day, 28 days from 3 to 4 months) was “indistinguishable from untreated controls”, the “plaque parameters” value (plaque burden [8]; 1 mg/kg/day, plaque count p=0.02, plaque area p=0.011) was “significantly reduced” and the “plaque parameters” value (plaque burden [8]; 3.3 mg/kg/day, plaque count p<0.0001, plaque area p<0.001) was “greatest reduction in plaque burden”. For the same compound, the “dose showing maximum effectiveness at reducing plaques” value (Aβ42) was 30 mg/kg/day.
